We go through 2 molecules from US20010049390A1, “Prevention of pest feed harm on a fibrous product” (priority 2000, published 2001).

Assay [1] has as its system middle instar larvae webbing clothes moth (Tineola bisselliella). The assay can be described thus: Test Example 2 / Comparative Example 2: pest feed harm on treated wool muslin preserved for 2 weeks before infestation. It is filed as in vivo. Set-up: key: “+++” for a heavy level of the pest feed harm; “++” for a normal level of the pest feed harm; “+” for a minor level of the pest feed harm; “−” for no visual feed harm. Conditions: preserved at 25±2° C. for 2 weeks before test, 10 larvae, 7 days of infestation, repeats 1-5. The protocol:
One-tenth (0.1) milliliter of acetone solutions composed of 0.1% w/v and 0.3% w/v of the present compound, respectively, was eye-dropped with a pipette onto wool muslins.
Each of the resulting wool muslins was then preserved at 25±2° C. for 2 weeks. After the 2 weeks, each of the wool muslins was placed on the bottom portion of a plastic container.
Ten (10) middle instar larvae webbing clothes moth (Tineola bisselliella) were then placed, respectively, into the plastic container and a nylon net was set on the top portion of the plastic container to cover the opening thereof. After 7 days of infestation under 25±2° C., the pest feed harm on the wool muslins were examined. The standards to the pest feed harm were “+++” for a heavy level of the pest feed harm, “++” for a normal level of the pest feed harm, “+” for a minor level of the pest feed harm and “−” for no visual feed harm. The tests were repeated 5 times.
(§1) Further, as a control, a test utilizing a wool muslin to which no composition was applied was similarly conducted. The control was repeated twice.
One-tenth (0.1) milliliter of acetone solutions composed of 0.1% w/v and 0.3% w/v of Comparative compound 1, respectively, was eye-dropped with a pipette onto wool muslins.
Ten (10) middle instar larvae webbing clothes moth (Tineola bisselliella) were then placed, respectively, into the plastic container and a nylon net was set on the top portion of the plastic container to cover the opening thereof. After 7 days of infestation under 25±2° C., the pest feed harm on the wool muslins were examined. The standards to the pest feed harm were “+++” for a heavy level of the pest feed harm, “++” for a normal level of the pest feed harm, “+” for a minor level of the pest feed harm and “−” for no visual pest feed harm. The comparative experiments were repeated 5 times.

The test system is the same in assay [2]. The assay can be described thus: Test Example 1 / Comparative Example 1: pest feed harm on treated wool muslin, infested after drying. Conditions: 10 larvae, 7 days of infestation at 25±2° C., repeats 1-5. The assay is classed as in vivo. The arrangement: key: “+++” for a heavy level of the pest feed harm; “++” for a normal level of the pest feed harm; “+” for a minor level of the pest feed harm; “−” for no visual pest feed harm.
From the text: One-tenth (0.1) milliliter of acetone solutions composed of 0.1% w/v and 0.3% w/v of 1-methyl-2-nitro-3-[(3-tetrahydrofuryl)methyl]guanidine (hereinafter referred to as the present compound), respectively, was eye-dropped with a pipette onto wool muslins.
Each of the resulting wool muslins was then allowed to dry and was placed on the bottom portion of a plastic container.
Ten (10) middle instar larvae webbing clothes moth (Tineola bisselliella) were then placed, respectively, into the plastic container, and a nylon net was set on the top portion of the plastic container to cover the opening thereof. After 7 days of infestation under 25±2° C., the pest feed harm on the wool muslins were examined. The standards to the pest feed harm were “+++” for a heavy level of the pest feed harm, “++” for a normal level of the pest feed harm, “+” for a minor level of the pest feed harm and “−” for no visual pest feed harm. The tests were repeated 5 times.
as §1
One-tenth (0.1) milliliter of acetone solutions composed of 0.1% w/v and 0.3% w/v of (E)-1-ethynyl-2-methyl-pent-2-enyl-(1R)-cis,trans-chrysanthemate (hereinafter referred to as comparative compound 1), respectively, was eye-dropped with a pipette onto wool muslins.
Ten (10) middle instar larvae webbing clothes moth (Tineola bisselliella) were then placed, respectively, into the plastic container, and a nylon net was set on the top portion of the plastic container to cover the opening thereof. After 7 days of infestation under 25±2° C., the pest feed harm on the wool muslins were examined. The standards to the pest feed harm were “+++” for a heavy level of the pest feed harm, “++” for a normal level of the pest feed harm, “+” for a minor level of the pest feed harm and “−” for no visual pest feed harm. The comparative experiments were repeated 5 times.

[3] abbreviates: application amount 25 mg/m^2 on wool muslin.
Where [4] appears, read: application amount 75 mg/m^2 on wool muslin.

Consider `C#CC(OC(=O)C1C(C=C(C)C)C1(C)C)/C(C)=C/CC` (mixture of isomers) [Comparative compound 1, (E)-1-ethynyl-2-methyl-pent-2-enyl-(1R)-cis,trans-chrysanthemate], for which the Pest feed harm entry in assay [1] (setting [3]) was “+ + +”; in assay [1] (setting [4]) it was “+ + +”; in assay [2] (setting [3]) it was “+ + and +”; in assay [2] (setting [4]) it was “+ and + +”.
For `CNC(=N[N+](=O)[O-])NCC1CCOC1` (centres unmarked) [Present compound, 1-methyl-2-nitro-3-[(3-tetrahydrofuryl)methyl]guanidine], the Pest feed harm entry in assay [1] (setting [3]), in assay [1] (setting [4]), in assay [2] (setting [3]) and in assay [2] (setting [4]) was “−” throughout.
